The values that follow come from ChEMBL document CHEMBL1201862, “PubChem BioAssay data set” (2004).

For one assay, the target named is T1, Streptokinase A (Streptococcus pyogenes serotype M1, UniProt P10520).
T1 sequence (P10520 whole entry): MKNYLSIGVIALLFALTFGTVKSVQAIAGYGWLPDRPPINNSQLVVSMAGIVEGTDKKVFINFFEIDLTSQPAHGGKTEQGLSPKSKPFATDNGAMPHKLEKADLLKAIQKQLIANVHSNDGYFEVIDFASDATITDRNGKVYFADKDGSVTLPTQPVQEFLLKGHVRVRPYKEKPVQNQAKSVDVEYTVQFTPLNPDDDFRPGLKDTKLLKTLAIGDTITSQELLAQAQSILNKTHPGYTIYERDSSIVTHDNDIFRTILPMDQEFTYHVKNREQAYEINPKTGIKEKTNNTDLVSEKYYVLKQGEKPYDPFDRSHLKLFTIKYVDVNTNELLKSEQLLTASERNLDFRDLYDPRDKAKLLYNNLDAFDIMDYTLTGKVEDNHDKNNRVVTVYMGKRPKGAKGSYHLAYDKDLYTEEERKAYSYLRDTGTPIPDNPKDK
Kind of assay: viability-normalized secreted streptokinase activity reduction – plasminogen activation absorbance, OD405, dose response (AID 1914).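 Further: secreted streptokinase activity via plasminogen activation per viability signal from cell pellet.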 The class given is functional, Streptococcus pyogenes M1 GAS.

Assay [1] concerns Streptococcus sp. 'group A'. In words: Streptococcus pyogenes SK(-)GAS viability under kanamycin – luminescence, BacTiterGlo, confirmation, counter-screen for streptokinase expression inhibitor project, dose response (AID 1900). It is filed as functional, organism-based.
For the next assay, the system named is Streptococcus. In words: GAS UMAA2166 growth inhibition – luminescence, BacTiterGlo, counter-screen for streptokinase expression inhibitor project, dose response (AID 1915).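 Further: potency for reduction of bacterial viability or growth.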 The class given is functional, organism-based.
Assay [2] can be described thus: Trypanosoma cruzi growth suppression in host cells – NIH3T3 host cells, beta-gal luminescence, confirmation (AID 2044).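 Further: intracellular parasites grown in NIH/3T3 mouse fibroblasts as host cells; luminescent beta-galactosidase reporter signal from transgenic T. cruzi replicating inside host cells; inhibitors lower the luminescence signal.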 It is filed as functional, cell-based.
The nature of assay [3]: NIH3T3 cell viability loss – ATP luminescence, mouse fibroblasts, counter-screen, dose response (AID 2010).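 Further: cells exposed to compound for about 90 hours before reading.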 The class given is functional, cell-based.
Assay [4] addresses T2, Calpain-2 catalytic subunit (Sus scrofa, UniProt P43367).
T2 sequence (P43367 whole entry): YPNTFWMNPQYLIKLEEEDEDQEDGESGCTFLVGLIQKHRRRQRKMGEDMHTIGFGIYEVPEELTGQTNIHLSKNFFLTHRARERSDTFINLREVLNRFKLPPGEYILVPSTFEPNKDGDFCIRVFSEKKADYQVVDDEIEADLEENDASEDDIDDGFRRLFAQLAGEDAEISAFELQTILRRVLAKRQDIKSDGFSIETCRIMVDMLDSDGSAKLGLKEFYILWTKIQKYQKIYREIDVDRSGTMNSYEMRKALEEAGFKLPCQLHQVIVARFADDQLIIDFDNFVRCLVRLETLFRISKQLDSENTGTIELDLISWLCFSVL
In words: m-calpain protease blockers, concentration series – biochemical, fluorogenic peptide substrate, dose response (AID 1420). The class given is functional.

The target of the next assay is Paired box protein Pax-8 (Homo sapiens, UniProt Q06710). In words: PAX8 transcriptional activity inhibition in RMG-I – RMG-I cells, luciferase, cherry-pick, dose response (AID 687027).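 Further: luciferase reporter driven by Pax8 target thyroperoxidase promoter measured by SteadyGlo luminescence.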 The class given is functional, cell-based.
Assay [5] in a line: HIV-1 AD8 envelope cell-cell fusion blockers – cherry-pick, dose response (AID 652062).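 Further: luciferase signal from cell-cell fusion driven by HIV-1 clade B AD8 Env; potency is for inhibitors of fusion seen as a drop in luminescence.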 It is filed as functional, cell-based.
The nature of assay [6]: P. falciparum Dd2 growth inhibitors, dose response, SYBR Green, cherry-picked samples (AID 1159567). It is filed as functional, cell-based.

Structures are written as SMILES. Active and inactive are the calls of the source. For most assays here, no stated cut-off is given here; in the data, actives have a measured EC50 and inactives only a lower limit.

Sequence of Paired box protein Pax-8 (Q06710 whole entry, the tested form may be a part): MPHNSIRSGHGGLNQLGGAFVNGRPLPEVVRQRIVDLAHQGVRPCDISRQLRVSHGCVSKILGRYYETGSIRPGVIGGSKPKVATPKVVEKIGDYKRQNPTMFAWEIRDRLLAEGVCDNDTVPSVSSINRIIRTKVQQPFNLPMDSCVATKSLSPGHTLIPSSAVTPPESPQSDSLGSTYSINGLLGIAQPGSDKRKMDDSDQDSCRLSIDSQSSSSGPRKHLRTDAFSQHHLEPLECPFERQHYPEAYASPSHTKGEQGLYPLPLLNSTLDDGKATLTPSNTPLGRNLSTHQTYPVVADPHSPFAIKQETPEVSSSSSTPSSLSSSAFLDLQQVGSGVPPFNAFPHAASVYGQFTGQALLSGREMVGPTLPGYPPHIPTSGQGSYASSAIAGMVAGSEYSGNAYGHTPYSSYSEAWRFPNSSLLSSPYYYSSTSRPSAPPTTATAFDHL

In the case of `COc1cc(C(=O)OCC(=O)c2c(N)n(C)c(=O)n(C)c2=O)ccc1OCCC(C)C`, the EC50 at Streptokinase A is > 150 µM (not active); in assay [1], 12.7 µM (active); in the assay with Streptococcus, > 150 µM (not active).
For the compound `CN1C(=O)/C(=C\c2ccccc2F)Sc2ccc(C(=O)NC3CCN(Cc4ccccc4)CC3)cc21`, the EC50 in assay [2] is 0.243 µM (active); on Streptokinase A, > 150 µM (not active); in assay [1], 7.12 µM (active); in the assay on Streptococcus, 41.8 µM (active); in [3], > 60 µM (not active).
For the compound `Cc1ccccc1N=C(S)N(CCc1c(C)[nH]c2ccc(F)cc12)Cc1cccnc1`, the IC50 in assay [4] is > 50 µM (not active).
`CC(C)(C)C1CC=C2C(C#N)=C(N)C(C#N)(C#N)C(c3cccs3)C2C1` (stereo not drawn): the EC50 was 25.7 µM (active) on Streptokinase A, 14.9 µM (active) in assay [1] and > 150 µM (not active) in the assay with Streptococcus.
As for `CC(C)c1ccc(-n2cccc2/C=C2/C(=N)N3C=CSC3=NC2=O)cc1`, the EC50 on Streptokinase A was > 150 µM (not active); in [1], 2.1 µM (active); in the assay with Streptococcus it was 14.7 µM (active).
With `O=C1CC(C(=O)Nc2ccc(Cl)cc2)n2ncnc2N1` (stereo not drawn), the IC50 in assay [4] was < 0.4 µM (not active).
Same read-out and setting: with `CC(CCc1ccccc1)NC(=O)CSc1cccc[n+]1[O-]` (stereo not drawn) the figure was 44.7 µM (not active); with `CSc1ccc(CN(C)CC(=O)Nc2c(F)cccc2F)cc1`, 2.25 µM (not active).
In the case of `C=CCn1c(N2C(=O)CC(Cc3ccccc3)C2=O)nc2ccccc21` (stereo not drawn), the results for the EC50 (at Streptokinase A; in [1]; with Streptococcus) were > 150 µM (not active), 9.02 µM (active) and > 150 µM (not active), respectively.
In the case of `CCOC(=O)N1CCc2c(sc3c2c(=O)n(Cc2ccccc2)c(=O)n3CC(=O)NCCOC)C1`, the IC50 in assay [4] was 7.05 µM (not active).
As for `Cc1ccnn2c(-c3ccccc3)c3c(=O)n(C)c(=O)n(C)c3c12`, the EC50 (at Streptokinase A; in assay [1]; in the assay with Streptococcus) was > 150 µM (not active) each time.
In the case of `CCCCSc1nnc(-c2ccc(C)cc2)c2ccccc12`, in assay [4], the IC50 is 5.25 µM (not active).
`Oc1ccc(C[C@H]2CN([C@@H](Cc3ccc(O)cc3)CN3CCC[C@@H]3CN3C(=S)NC[C@@H]3Cc3ccccc3)C(=S)N2CC2CCCCCC2)cc1`: on Paired box protein Pax-8, the AC50 is 9.27 µM (active).
Still for that read-out and setting: with `C[C@H]1CN([C@@H](C)CO)C(=O)c2cccc(NC(=O)Nc3ccc(F)cc3)c2O[C@H]1CN(C)C(=O)Nc1ccc(C(F)(F)F)cc1` the figure was 13.1 µM (active).
For `O=C(C[C@H]1C[C@@H]2c3cc(NC(=O)C4CCOCC4)ccc3O[C@@H]2[C@H](CO)O1)NCc1ccccc1`, the AC50 in assay [5] is 2.09 µM (active).
On to `C[C@@H]1CN([C@@H](C)CO)C(=O)c2c(c3ccccc3n2C)-c2ccccc2CO[C@H]1CN(C)C(=O)Nc1ccc2c(c1)OCO2`, for which the concentration at half-maximal activity (AC50) at Paired box protein Pax-8 is 5.68 µM (active).
As for `OC[C@@H]1CC[C@@H]2O[C@H](CCc3ccc(-c4ccc(F)cc4)cc3)[C@H](n3cc(C4CC4)nn3)C[C@@H]2O1`, in assay [6], the AC50 was 7.67 µM (active).
Still for that read-out and setting: with `N#C[C@@H]1[C@H](c2ccccc2-c2cccc(F)c2)[C@H](CO)N1C(=O)C1CC1` the figure was 3.48 µM (active); with `COCC#Cc1ccc(CC[C@H]2O[C@H]3CC[C@@H](CO)O[C@H]3C[C@@H]2n2cc(C3CC3)nn2)cc1`, 5.82 µM (active); with `CCC(=O)N1CCC2(CC1)CN(Cc1ccc3c(c1)OCO3)[C@@H](CO)c1c2c2ccc(OC)cc2n1C`, 4.05 µM (active).
Consider `CN1c2ccc(C#Cc3cccnc3)cc2[C@@H]2[C@@H](CCN2C(=O)C2CCC2)[C@@H]1CO`, for which, in assay [6], the AC50 is 4.18 µM (active).
Regarding `COc1cc(C(=O)NS(=O)(=O)c2ccccc2C)ccc1Cc1cn(C)c2ccc(NC(=O)OC3CCCC3)cc12` [ZAFIRLUKAST], the results for the concentration for a half-maximal effect (EC50) (at Streptokinase A; in [1]; in the assay with Streptococcus) were > 50 µM (not active), 0.936 µM (active) and > 50 µM (not active), respectively.
